Values of other authors, collected in patent US11717481B2, “Reduction of flake-like aggregation in nanoparticulate active agent compositions” (Alkermes Pharma Ireland Limited, priority 2009, dated 2023).

Question: With `Cc1cnc(NC(=O)C2=C(O)c3ccccc3S(=O)(=O)N2C)s1` [Meloxicam, 4-hydroxy-2-methyl-N-(5-methyl-2-thiazolyl)-2H-1,2-benzothiazine-3-carboxamide-1,1-dioxide] as the compound, how does the solubility in water read?
Answer: Its solubility in water is “Practically insoluble”.
